Key:
[1] = molecular target: CDK7/cyclinH/MAT1 complex (Homo sapiens, UniProt P50613); assay: In-vitro enzymatic inhibitory activity testing, CDK7 inhibition assay (Caliper EZ Reader II); assay type: biochemical; settings: CDK7/cyclinH/MAT1 6 nM, 180 min at 27° C.
How it was run: (§1)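 Enzyme preincubated 10 min with compound, then peptide substrate plus ATP added in 80 mM MES pH 6.5, 10 mM MgCl2 buffer; 180 min at 27 °C, stopped with EDTA.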

[2] = molecular target: T1, CDK12 (aa686-1082)/cyclinK complex (Homo sapiens, UniProt Q9NYV4); assay: In-vitro enzymatic inhibitory activity testing, CDK12 inhibition assay (Caliper EZ Reader II); assay type: biochemical; settings: CDK12/cyclinK 50 nM, 180 min at 27° C.; read-out: CDK12 IC50
T1 construct: A CDK12 (aa686-1082)/cyclinK complex (50 nM)
How it was run: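 Caliper EZ Reader II mobility-shift separation of 5-FAM-CDK9tide substrate (2 μM) from phosphoproduct, using 50 nM CDK12 (aa686-1082)/cyclinK in 80 mM MES pH 6.5, 10 mM MgCl2, 0.01% Tween 20, 50 ug/mL BSA. Compound pre-incubated 10 min with enzyme, then substrate/ATP added for 180 min at 27° C; EDTA stop. IC50 by nonlinear dose-response regression.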

[3] = system: ovarian cancer A2780; assay: Cell biological activity detection (CyQuant, 72 hours), A2780; assay type: cell-based, human; settings: A2780 cells, incubation for 72 hours
How it was run: (§2)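 A2780 and HCC70 cells seeded at 2000/well in RPMI 1640 + 10% FBS, treated next day with 9-point compound dilutions (top 10 μM, 1:4; 0.2% DMSO) for 72 h at 37 °C. Cell number read by CyQuant Direct nucleic acid stain (ex 488 nm); IC50 from dose–response fit.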

[4] = molecular target: CDK2/cyclinE1 complex (Homo sapiens, UniProt P24941); assay: In-vitro enzymatic inhibitory activity testing, CDK2 inhibition assay (Caliper EZ Reader II); assay type: biochemical; settings: CDK2/cyclinE1 0.5 nM, 180 min at 27° C.
How it was run: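 CDK2/cyclinE1 (0.5 nM) phosphorylated 5-FAM-CDK7tide (2 μM) in MES buffer pH 6.5 with MgCl2, Tween 20 and BSA. Substrate and product were separated electrophoretically on a Caliper EZ Reader II. IC50 values came from nonlinear dose-response fits.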

[5] = system: human breast cancer cells HCC70; assay: Cell biological activity detection (CyQuant, 72 hours), HCC70; assay type: cell-based; settings: incubation for 72 hours
How it was run: as §2

[6] = molecular target: CDK9/cyclinT1 complex (Homo sapiens, UniProt P50750); assay: In-vitro enzymatic inhibitory activity testing, CDK9 inhibition assay (Caliper EZ Reader II); assay type: biochemical; settings: CDK9/cyclinT1 8 nM, 180 min at 27° C.
How it was run: as §1

T1 sequence (Q9NYV4 686-1082, species assumed): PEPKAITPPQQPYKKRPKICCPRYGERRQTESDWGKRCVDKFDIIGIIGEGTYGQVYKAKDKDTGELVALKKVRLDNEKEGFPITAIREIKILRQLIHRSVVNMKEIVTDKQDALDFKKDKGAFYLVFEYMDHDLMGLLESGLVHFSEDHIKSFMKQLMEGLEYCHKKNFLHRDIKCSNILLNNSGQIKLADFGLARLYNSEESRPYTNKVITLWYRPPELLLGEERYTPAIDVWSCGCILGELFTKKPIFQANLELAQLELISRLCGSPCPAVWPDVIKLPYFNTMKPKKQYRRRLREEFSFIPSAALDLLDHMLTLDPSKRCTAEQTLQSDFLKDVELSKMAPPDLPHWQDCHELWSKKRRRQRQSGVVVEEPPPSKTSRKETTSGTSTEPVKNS
T1 sequence (O75909 whole entry partner, species assumed, the tested form may be a part): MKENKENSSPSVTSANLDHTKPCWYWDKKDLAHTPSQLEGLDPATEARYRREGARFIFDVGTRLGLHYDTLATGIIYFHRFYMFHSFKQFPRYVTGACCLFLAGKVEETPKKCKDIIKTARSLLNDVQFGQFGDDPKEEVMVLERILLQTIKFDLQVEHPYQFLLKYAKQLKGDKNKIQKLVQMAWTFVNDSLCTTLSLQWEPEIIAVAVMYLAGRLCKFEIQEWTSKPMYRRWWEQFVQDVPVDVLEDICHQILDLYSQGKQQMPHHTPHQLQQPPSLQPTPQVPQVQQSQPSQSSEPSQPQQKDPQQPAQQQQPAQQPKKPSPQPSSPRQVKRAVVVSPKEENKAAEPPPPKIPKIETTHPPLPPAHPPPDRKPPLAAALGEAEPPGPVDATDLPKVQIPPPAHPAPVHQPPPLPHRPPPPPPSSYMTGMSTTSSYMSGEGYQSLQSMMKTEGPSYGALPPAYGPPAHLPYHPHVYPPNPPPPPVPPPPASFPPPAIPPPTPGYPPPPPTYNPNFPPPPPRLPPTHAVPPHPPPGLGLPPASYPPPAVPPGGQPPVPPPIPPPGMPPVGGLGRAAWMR
Chain of CDK7/cyclinH/MAT1 complex (P50613 whole entry, species assumed): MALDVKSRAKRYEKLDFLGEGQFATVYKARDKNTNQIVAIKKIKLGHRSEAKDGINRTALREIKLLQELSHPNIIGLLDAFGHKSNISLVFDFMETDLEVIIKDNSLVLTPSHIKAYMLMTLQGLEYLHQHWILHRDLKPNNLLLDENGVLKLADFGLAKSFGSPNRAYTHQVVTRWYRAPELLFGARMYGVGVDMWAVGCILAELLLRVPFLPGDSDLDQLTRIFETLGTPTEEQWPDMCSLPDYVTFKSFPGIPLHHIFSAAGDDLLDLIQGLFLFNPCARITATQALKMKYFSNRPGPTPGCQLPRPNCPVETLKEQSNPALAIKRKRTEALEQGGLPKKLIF
Chain of CDK7/cyclinH/MAT1 complex (P51946 whole entry partner, species assumed): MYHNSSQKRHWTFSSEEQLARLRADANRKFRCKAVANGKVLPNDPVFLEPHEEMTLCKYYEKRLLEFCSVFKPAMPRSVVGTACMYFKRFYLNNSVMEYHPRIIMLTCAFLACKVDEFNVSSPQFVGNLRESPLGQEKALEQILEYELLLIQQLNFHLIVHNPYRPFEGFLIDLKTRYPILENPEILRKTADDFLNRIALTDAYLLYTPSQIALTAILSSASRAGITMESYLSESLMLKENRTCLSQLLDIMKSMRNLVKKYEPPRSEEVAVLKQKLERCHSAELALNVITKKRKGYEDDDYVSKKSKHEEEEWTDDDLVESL
Chain of CDK7/cyclinH/MAT1 complex (P51948 whole entry partner, species assumed): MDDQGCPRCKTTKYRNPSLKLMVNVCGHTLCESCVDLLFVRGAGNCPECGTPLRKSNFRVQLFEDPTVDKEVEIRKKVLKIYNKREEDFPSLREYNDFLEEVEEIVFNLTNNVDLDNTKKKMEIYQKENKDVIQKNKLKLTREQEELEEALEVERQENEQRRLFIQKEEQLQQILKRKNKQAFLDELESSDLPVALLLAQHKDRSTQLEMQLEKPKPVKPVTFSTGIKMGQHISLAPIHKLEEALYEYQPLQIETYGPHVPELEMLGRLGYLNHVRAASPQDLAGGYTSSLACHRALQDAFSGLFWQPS
Chain of CDK9/cyclinT1 complex (P50750 whole entry, species assumed): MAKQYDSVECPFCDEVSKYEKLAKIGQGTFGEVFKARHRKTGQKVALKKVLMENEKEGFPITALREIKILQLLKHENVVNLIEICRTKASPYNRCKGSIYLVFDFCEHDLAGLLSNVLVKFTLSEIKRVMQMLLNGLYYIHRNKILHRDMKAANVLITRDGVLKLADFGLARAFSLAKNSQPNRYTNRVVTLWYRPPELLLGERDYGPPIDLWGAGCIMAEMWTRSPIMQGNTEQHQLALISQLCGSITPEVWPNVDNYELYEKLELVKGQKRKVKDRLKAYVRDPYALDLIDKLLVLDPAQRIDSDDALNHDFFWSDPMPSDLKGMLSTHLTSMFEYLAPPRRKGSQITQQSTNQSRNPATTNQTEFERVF
Chain of CDK9/cyclinT1 complex (O60563 whole entry partner, species assumed): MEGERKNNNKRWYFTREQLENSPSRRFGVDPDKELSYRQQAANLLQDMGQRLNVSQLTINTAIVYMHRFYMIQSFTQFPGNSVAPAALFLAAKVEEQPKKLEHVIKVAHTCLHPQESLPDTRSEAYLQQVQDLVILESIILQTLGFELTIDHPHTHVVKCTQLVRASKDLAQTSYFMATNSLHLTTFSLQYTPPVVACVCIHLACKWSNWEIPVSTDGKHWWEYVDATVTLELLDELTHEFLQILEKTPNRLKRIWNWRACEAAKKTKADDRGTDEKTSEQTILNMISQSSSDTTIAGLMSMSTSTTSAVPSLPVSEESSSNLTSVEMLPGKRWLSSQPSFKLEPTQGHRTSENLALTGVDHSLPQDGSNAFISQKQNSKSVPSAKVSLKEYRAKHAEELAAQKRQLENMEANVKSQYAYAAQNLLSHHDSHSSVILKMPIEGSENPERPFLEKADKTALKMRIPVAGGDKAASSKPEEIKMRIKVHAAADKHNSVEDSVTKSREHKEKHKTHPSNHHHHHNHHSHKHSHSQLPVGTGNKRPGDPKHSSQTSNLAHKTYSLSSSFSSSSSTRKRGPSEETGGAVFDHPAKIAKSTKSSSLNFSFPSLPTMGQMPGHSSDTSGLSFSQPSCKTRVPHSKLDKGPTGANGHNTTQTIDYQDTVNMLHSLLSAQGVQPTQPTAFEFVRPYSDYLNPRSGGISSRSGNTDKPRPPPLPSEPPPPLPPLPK

Row | Structure (SMILES) | IC50 [1] | IC50 [2] | IC50 ([3]; Homo sapiens, A2780, 72 h) | IC50 [4] | IC50 [6] | IC50 [3] | IC50 ([5]; Homo sapiens, HCC70, 72 h) | IC50 [5]
1 | FC(F)(F)c1cnc(NC2COC23CNC3)nc1-c1c[nH]c2nc(N3CCOCC3)ccc12 (stereo not drawn) [Compound 58, N-(4-(6-morpholinyl-1H-pyrrolo[2,3-b]pyridin-3-yl)-5-(trifluoromethyl)pyrimidin-2-yl)-1-oxa-6-azaspiro[3.3]heptan-3-amine] | 0.02 to 0.2 µM | > 50 µM | 0.2 to 5 µM | 5 to 50 µM | > 50 µM | – | 0.02 to 0.2 µM | –
2 | CP(C)(=O)c1cccc2c(-c3nc(NCC4(O)CCCC4)ncc3C(F)(F)F)c[nH]c12 [Compound 151] | 0.02 to 0.2 µM | > 50 µM | 0.02 to 0.2 µM | 5 to 50 µM | > 50 µM | – | 0.02 to 0.2 µM | –
3 | FC(F)(F)c1cnc(NC2CCC3CNCC32)nc1-c1c[nH]c2nc(N3CCOCC3)ccc12 (stereo not drawn) [Compound 55, N-(4-(6-morpholinyl-1H-pyrrolo[2,3-b]pyridin-3-yl)-5-(trifluoromethyl)pyrimidin-2-yl)octahydrocyclopenta[c]pyrrol-4-amine] | 0.02 to 0.2 µM | > 50 µM | 0.02 to 0.2 µM | 5 to 50 µM | > 50 µM | – | 0.2 to 5 µM | –
4 | CP(C)(=O)c1cccc2c(-c3nc(NCC4(CO)CC4)ncc3C(F)(F)F)c[nH]c12 [Compound 160] | 0.02 to 0.2 µM | > 50 µM | 0.2 to 5 µM | 5 to 50 µM | > 50 µM | – | 0.2 to 5 µM | –
5 | CC1(C)COCC(Nc2ncc(C(F)(F)F)c(-c3c[nH]c4nc(C#N)ccc34)n2)CN1 (stereo not drawn) [Compound 62, 3-(2-((3,3-dimethyl-1,4-oxazepan-6-yl)amino)-5-(trifluoromethyl)pyrimidin-4-yl)-1H-pyrrolo[2,3-b]pyridine-6-carbonitrile] | 0.02 to 0.2 µM | 5 to 50 µM | 0.2 to 5 µM | > 50 µM | > 50 µM | – | 0.2 to 5 µM | –
6 | FC(F)(F)c1cnc(NC2CCC3CNCC32)nc1-c1c[nH]c2nc(N3CCOCC3)ccc12 (single isomer, unassigned) [Compound 57] | 0.2 to 5 µM | > 50 µM | – | > 50 µM | > 50 µM | 0.2 to 5 µM | – | 0.2 to 5 µM
7 | C[C@H]1COCCN1c1ccc2c(-c3nc(N[C@H]4CC[C@@H](N)C4)ncc3C(F)(F)F)c[nH]c2n1 [Compound 68, (1S,3R)—N1-(4-(6-((S)-3-methylmorpholinyl)-1H-pyrrolo[2,3-b]pyridin-3-yl)-5-(trifluoromethyl)pyrimidin-2-yl)cyclopentan-1,3-diamine] | 0.02 to 0.2 µM | 5 to 50 µM | 0.2 to 5 µM | 5 to 50 µM | 5 to 50 µM | – | 0.2 to 5 µM | –
8 | FC(F)(F)c1cnc(NC2CCCC3(CCNCC3)C2)nc1-c1c[nH]c2nc(N3CCOCC3)ccc12 (stereo not drawn) [Compound 41, N-(4-(6-morpholinyl-1H-pyrrolo[2,3-b]pyridin-3-yl)-5-(trifluoromethyl)pyrimidin-2-yl)-3-azaspiro[5.5]undecan-8-amine] | 0.02 to 0.2 µM | 5 to 50 µM | 0.02 to 0.2 µM | 5 to 50 µM | 5 to 50 µM | – | 0.2 to 5 µM | –
9 | C[C@@H](CO)Nc1ncc(C(F)(F)F)c(-c2c[nH]c3nc(C4=CCOCC4)ccc23)n1 [Compound 181, (S)-2-((4-(6-(3,6-dihydro-2H-pyran-4-yl)-1H-pyrrolo[2,3-b]pyridin-3-yl)-5-(trifluoromethyl)pyrimidin-2-yl)amino)propan-1-ol] | 0.02 to 0.2 µM | 5 to 50 µM | 0.02 to 0.2 µM | 0.2 to 5 µM | > 50 µM | – | 0.2 to 5 µM | –
10 | FC(F)(F)c1cnc(NC2CCC23CCNC3)nc1-c1c[nH]c2nc(N3CCOCC3)ccc12 (stereo not drawn) [Compound 37, N-(4-(6-morpholinyl-1H-pyrrolo[2,3-b]pyridin-3-yl)-5-(trifluoromethyl)pyrimidin-2-yl)-6-azaspiro[3.4]octan-1-amine] | 0.02 to 0.2 µM | 5 to 50 µM | 0.2 to 5 µM | 5 to 50 µM | 5 to 50 µM | – | 0.2 to 5 µM | –
11 | CP(C)(=O)c1cccc2c(-c3nc(N[C@@H]4CCC45CNC5)ncc3C(F)(F)F)c[nH]c12 [Compound 80] | < 0.02 µM | 5 to 50 µM | < 0.02 µM | 0.2 to 5 µM | 5 to 50 µM | – | < 0.02 µM | –
12 | C[C@H](Nc1ncc(C(F)(F)F)c(-c2c[nH]c3c(P(C)(C)=O)cccc23)n1)C(C)(C)O [Compound 163, (S)-(3-(2-((3-hydroxy-3-methylbutan-2-yl)amino)-5-(trifluoromethyl)pyrimidin-4-yl)-1H-indole-7-yl)dimethylphosphine oxide] | 0.02 to 0.2 µM | > 50 µM | 0.02 to 0.2 µM | 5 to 50 µM | > 50 µM | – | 0.2 to 5 µM | –

Second part, led by results:

Row | IC50 [1] | IC50 [2] | IC50 ([3]; Homo sapiens, A2780, 72 h) | IC50 [4] | IC50 [6] | IC50 [3] | Structure (SMILES) | IC50 ([5]; Homo sapiens, HCC70, 72 h) | IC50 [5]
13 | < 0.02 µM | > 50 µM | 0.2 to 5 µM | 5 to 50 µM | > 50 µM | – | CC[C@](C)(CO)Nc1ncc(C(F)(F)F)c(-c2c[nH]c3c(P(C)(C)=O)cccc23)n1 [Compound 161, (R)-(3-(2-((1-hydroxy-2-methylbutan-2-yl)amino)-5-(trifluoromethyl)pyrimidin-4-yl)-1H-indole-7-yl)dimethylphosphine oxide] | 0.2 to 5 µM | –
14 | < 0.02 µM | 0.2 to 5 µM | 0.02 to 0.2 µM | 0.2 to 5 µM | 0.2 to 5 µM | – | Cc1noc(C)c1-c1ccc2c(-c3nc(NC4CCC5(CCNC5)C4)ncc3C(F)(F)F)c[nH]c2n1 (stereo not drawn) [Compound 35, N-(4-(6-(3,5-dimethylisoxazol-4-yl)-1H-pyrrolo[2,3-b]pyridin-3-yl)-5-(trifluoromethyl)pyrimidin-2-yl)-2-azaspiro[4.4]non-7-amine] | 0.02 to 0.2 µM | –
15 | < 0.02 µM | > 50 µM | < 0.02 µM | 5 to 50 µM | > 50 µM | – | CP(C)(=O)c1cccc2c(-c3nc(NC(CO)CO)ncc3C(F)(F)F)c[nH]c12 [Compound 194, (3-(2-((1,3-dihydroxypropan-2-yl)amino)-5-(trifluoromethyl)pyrimidin-4-yl)-1H-indole-7-yl)dimethylphosphine oxide] | 0.02 to 0.2 µM | –
16 | < 0.02 µM | > 50 µM | 0.02 to 0.2 µM | 5 to 50 µM | 5 to 50 µM | – | FC(F)(F)c1cnc(N[C@@H]2CCC23CNC3)nc1-c1c[nH]c2nc(N3CCOCC3)ccc12 [Compound 59, (R)—N-(4-(6-morpholinyl-1H-pyrrolo[2,3-b]pyridin-3-yl)-5-(trifluoromethyl)pyrimidin-2-yl)-2-azaspiro[3.3]heptan-5-amine] | 0.02 to 0.2 µM | –
17 | < 0.02 µM | > 50 µM | 0.02 to 0.2 µM | 5 to 50 µM | > 50 µM | – | CP(C)(=O)c1cccc2c(-c3nc(N[C@@H](CO)C4CC4)ncc3C(F)(F)F)c[nH]c12 [Compound 159, (R)-(3-(2-((1-cyclopropyl-2-hydroxyethyl)amino)-5-(trifluoromethyl)pyrimidin-4-yl)-1H-indole-7-yl)dimethylphosphine oxide] | 0.02 to 0.2 µM | –
18 | < 0.02 µM | > 50 µM | – | 5 to 50 µM | > 50 µM | 0.02 to 0.2 µM | CP(C)(=O)c1cccc2c(-c3nc(NCC(O)C(F)F)ncc3C(F)(F)F)c[nH]c12 (single isomer, unassigned) [Compound 124] | 0.02 to 0.2 µM | –
